Laboratory results reported in US20260234165A1, “MACROCYCLIC COMPOUNDS, PREPARATION METHOD THEREFOR, AND USE THEREOF” (GENFLEET THERAPEUTICS (SHANGHAI) INC., priority 2004, published 2026).
Like-named read-outs stand apart in the source and are kept apart here. Blank lines part the entries; values can stand above or below the molecule they belong to.

Experiments:
Assay type in all cases: cell-based, human
[1] = test system: p-ERK in NCI-H441 cells (KRAS G12V mutation); experiment: Cell p-ERK assay (HTRF) in NCI-H441 cells
Description: (§1) AsPC-1 cells were purchased from ATCC, Cat. No. CRL-1682: NCI-H441 cells were purchased from ATCC, Cat. No. HTB-174: RPMI-1640 medium was purchased from Gibco, Cat. No. I1875-093: FBS was purchased from Gibco, Cat. No. 10099-141C: penicillin/streptomycin double-antibiotic solution (PS) was purchased from Gibco, Cat. No. 15140-122: trypsin (containing EDTA) was purchased from Gibco, Cat. No. 25200-072; DMSO was purchased from VWRAMRESCO, Cat. No. 0231-500ML; 96-well cell culture plates were purchased from Corning, Cat. No. 3599: white-bottomed, opaque 96-well plates were purchased from Cisbio, Cat. No. 66PL96025; Advance ERK phospho-T202/Y204 kit was purchased from Cisbio, Cat. No. 64AERPEH; cell counter was purchased from CHEMOMETEC, model: NC-200; microplate reader was purchased from PerkinElmer, model: EnVision.
(§2) AsPC-1, a human pancreatic cancer cell strain endogenously containing a KRAS^G12D mutation, was cultured in a complete medium containing RPMI-1640+10% FBS+1% PS. NCI-H441, a human non-small cell lung cancer cell strain endogenously containing a KRAS^G12V mutation, was cultured in a complete medium containing RPMI-1640+10% FBS+1% PS.
(§3) The cells were digested with trypsin (containing EDTA), collected in their corresponding complete media, and counted. The density of the cell suspensions was adjusted with their corresponding complete media, and 10000 AsPC-1 cells or 20000 NCI-H441 cells per well were seeded into a 96-well cell culture plate, with the volume of the medium in each well being 80 μL.
(§4) The cell culture plate was incubated in an incubator at 37° C. with 5% CO2 overnight. A series of 3.16-fold gradient dilutions of a 1000- compound stock solution were prepared with DMSO, and then diluted 200-fold with the complete medium described above to give 5′ compound stock solutions. On the day after cell seeding, 20 μL of the 5× compound stock solution was added to each cell culture well. As a result, the final concentration of the compound in the cell culture well became 1×, and the DMSO content in the well was 0.1%. In addition to the compound-treated wells described above, cell-containing DMSO control wells were also set. A complete medium containing 0.5% DMSO was added at 20 μL/well. After the mixture was well mixed, the culture plate was incubated in the incubator at 37° C. with 5% CO2 for another 3 h. The medium was then removed from the culture wells, and 50 μL of cell lysis buffer (from Advance ERK phospho-T202,Y204 kit) was added to each well. The mixture was well mixed and incubated for 30 min. Then, 16 μL of the mixture was transferred to a white-bottomed, opaque 96-well assay plate, and separately, 16 μL of cell lysis buffer was added to additional wells (serving as blank wells) in the assay plate. After the transfer was completed, 4 μL of p-ERK HTRF antibody mixture (from Advance ERK phospho-T202/Y204 kit) was added to each well of the assay plate, followed by a 4-hour incubation. The HTRF signal values (RLU) were then measured using a microplate reader, and the inhibition rate of the compound against p-ERK levels was calculated as follows: IR (%)=(RLUDMSO−RLUcompound)/(RLUDMSO−RLUblank)×100%, where RLUDMSO is the average HTRF signal value from the DMSO control well samples, RLUblank is the average HTRF signal value from the blank well samples, and RLUcompound is the HTRF signal value from the compound-treated well samples. Using an XLfit software, the IR (%) values were plotted against the logarithm of the compound concentrations, and the dose-response curves were fitted using the four-parameter method to calculate the IC50 values.

[2] = test system: p-ERK in AsPC-1 cells (KRAS G12D mutation); experiment: Cell p-ERK assay (HTRF) in AsPC-1 cells
Description: as §1, §2, §3, §4

NCI-H441 cells = experiment: 3D cell proliferation assay (CellTiter Glo-3D), NCI-H441; details: medium with 2% FBS, read-out: H441 AP IC50
From the text: MIA PaCa-2 cells were purchased from ATCC, Cat. No. CRL-1420; AsPC-1 cells were purchased from ATCC, Cat. No. CRL-1682; NCI-H441 cells were purchased from ATCC, Cat. No. HTB-174: NCI-H1975 cells were purchased from ATCC. Cat. No. CRL-5908; DMEM medium was purchased from Gibco, Cat. No. 11995-065: RPMI-1040 medium was purchased from Gibco. Cat. No. H 18754093; FBS was purchased from Gibco, Cat. No. 10099-141C. penicillin, streptomycin double-antibiotic solution (PS) was purchased from Gibco, Cat. No. 15140-122; Horse serum was purchased from Gibco. Cat. No. 16050130: trypsin (containing EDTA) was purchased from Gibco, Cat. No. 25200-072; DMSO was purchased from VWRAMRESCO, Cat. No. 0231-500ML; 384-well cell culture plates were purchased from Corning, Cat. No. 3830; white-bottomed, opaque 384-well assay plates were purchased from Corning, Cat. No. 3570. CellTiter Glo-3D) kit was purchased from Promega. Cat. No. G9683; cell counter was purchased from CHEMOMETEC, model: NC-200: microplate reader was purchased from PerkinElmer, model: EnVision.
MIA PaCa-2, a human pancreatic cancer cell strain endogenously containing a KRAS^G12C mutation, was cultured in a complete medium containing DMEM+10% FBS+2.5% Horse serum+1% PS. AsPC-1, a human pancreatic cancer cell strain endogenously containing a […] mutation, was cultured in a complete medium containing RPMI-1640+10% FBS+1% PS. NCI-H441 cells, a human lung cancer cell strain endogenously containing a […] mutation, were cultured in a complete medium containing RPMI-1640+10% FBS+1% PS. NCI-H1975, a KRAS wild-type human lung cancer cell strain whose cell proliferation depends on KRAS activity, was cultured in a complete medium containing RPMI-1640+10% FBS+1% PS.
The cells were digested with trypsin (containing EDTA), collected in their respective low-serum complete media containing 2% FBS (for MIA Paca-2 cell culture: DMEM+2% FBS+0.5% Horse serum+1% PS), and counted. After the cell density was adjusted as required, 200 MIA PaCa-2 cells, 800 AsPC-1 cells, 800 NCI-H441 cells, or 400 NCI-H1975 cells per well were seeded into a 384-well cell culture plate, with the volume of the medium in each well being 45 μL. The cell culture plate was incubated in an incubator at 37° C. with 5% CO2, overnight. A series of 3.16-fold gradient dilutions of a 1000× compound stock solution were prepared with DMSO, and then diluted 100-fold with the complete medium containing 2% FBS described above to give 10- compound stock solutions. On the day after cell seeding, 5 μL of the 10- compound stock solution was added to each cell culture well. As a result, the final concentration of the compound in the cell culture well became 1×, and the DMSO content in the well was 0.1%. In addition to the compound-treated wells described above, cell-containing DMSO control wells (with 5 μL of the complete medium containing 1% DMSO added to each well) and cell-free medium control wells (containing 50 μL of the complete medium with 2% FBS) were also set. The culture plate was incubated in an incubator at 37° C. with 5% CO2 for another 5 days, and then 30 μL of CellTiter-Glo working solution was added to each well. The mixture was well mixed, incubated for 30 min, left to stand at room temperature for 30 min, and then transferred to a white-bottomed, opaque 384-well assay plate at 40 μL/well. The chemiluminescence values (RLU) were measured using a microplate reader, and the cell proliferation inhibition rate for each well was calculated: IR (%)=(RLUDMSO—RLUcompound)/(RLUDMSO−RLUblank)×100%, where RLUDMSO is the average RLU signal value from the DMSO control well samples, RLUblank is the average RLU signal value from the medium control well samples, and RLUcompound is the RLU signal value from the compound-treated well samples. […]

[3] = NCI-H441 cells, 3 h compound incubation, HTRF p-ERK T202/Y204, read-out: H441 p-ERK IC50
[4] = Homo sapiens, NCI-H441, 3 h, NCI-H441 cells, 3 h compound incubation, HTRF p-ERK T202/Y204, read-out: H441 p-ERK IC50
[5] = Homo sapiens, ASPC1, 3 h, AsPC-1 cells, 3 h compound incubation, HTRF p-ERK T202/Y204, read-out: AsPC-1 p-ERK IC50
[6] = Homo sapiens, NCI-H441, 3D cell proliferation (CellTiter Glo-3D)

SMILES: C=C1CCN2CCN(c3cnc([C@H](C)OC)c(-c4c5c6cc(ccc6n4CC)-c4csc(n4)C[C@H](NC(=O)[C@H]4[C@H](C)[C@@H]4C)C(=O)N4CCC[C@H](N4)C(=O)OCC(C)(C)C5)c3)C[C@H]2C1 (atropisomer, axis not shown; (Sa)) [Compound Z549, (1r,2R,3S)—N-((6^3S,4S,Z)-1^1-ethyl-(Sa)-1^2-(2-((S)-1-methoxyethyl)-5-((R)-8-methyleneoctahydro-2H-pyrido[1,2-a]pyrazin-2-yl)pyridin-3-yl)-10,10-dimethyl-5,7-dioxo-6^1,6^2,6^3,6^4,6^5,6^6-hexahydro-1′H-8-oxa-2(4,2)-thiazola-1(5,3)-indola-6(1,3)-pyridazinacycloundecaphane-4-yl)-2,3-dimethylcyclopropane-1-carboxamide]
IC50 [1, 3]: 26.7 nM | IC50 ([2]; AsPC-1 cells, 3 h compound incubation, HTRF p-ERK T202/Y204, read-out: AsPC-1 p-ERK IC50): 32.6 nM

SMILES: CCn1c(-c2cc(C#CCN3CCC(O)(c4cccc(C)[n+]4[O-])CC3)cnc2[C@H](C)OC)c2c3cc(ccc31)-c1csc(n1)C[C@H](NC(=O)[C@H]1[C@H](C)[C@@H]1C)C(=O)N1CCC[C@H](N1)C(=O)OCC(C)(C)C2 (atropisomer, axis not shown; (Ra)) [Compound Z1055, 2-(1-(3-(5-((6^3S,4S,Z)-4-((r,2R,3S)-2,3-dimethylcyclopropane-1-carboxamido)-1^1-ethyl-10,10-dimethyl-5,7-dioxo-6^1,6^2,6^3,6^4,6^5,6^6-hexahydro-1^1H-8-oxa-2(4.2)-thiazola-1(5,3)-indola-6(1.3)-pyridazinacycloundecaphane-12-yl)-(Ra)-6-((S)-1-methoxyethyl)pyridin-3-yl)prop-2-yn-1-yl)-4-hydroxypiperidin-4-yl)-6-methylpyridine 1-oxide]
IC50 ([1]; Homo sapiens, NCI-H441, 3 h, read-out: H441 p-ERK IC50(nM)): 0.19 nM | IC50 ([2]; Homo sapiens, ASPC1, 3 h, read-out: AsPC-1 p-ERK IC50(nM)): 0.32 nM

SMILES: CCn1c(-c2cc(C#CCN3CCCOCC3)c[n+]([O-])c2C(C)C)c2c3cc(ccc31)-c1csc(n1)C[C@H](NC(=O)[C@H]1[C@H](C)[C@@H]1C)C(=O)N1CCC[C@H](N1)C(=O)OCC(C)(C)C2 (atropisomer, axis not shown; (Ra)) [Compound Z950, (1r,2R,3S)—N-((6^3S,4S,Z)—(Ra)-1^2-(5-(3-(1,4-oxazepan-4-yl)prop-1-yn-1-yl)-2-isopropylpyridin-1-oxide-3-yl)-1^1-ethyl-10,10-dimethyl-5,7-dioxo-6^1,6^2,6^3,6^4,6^5,6^6-hexahydro-1^1H-8-oxa-2(4,2)-thiazola-1(5,3)-indola-6(1,3)-pyridazinacycloundecaphane-4-yl)-2,3-dimethylcyclopropane-1-carboxamide]
IC50 [1, 4]: 0.16 nM | IC50 [2, 5]: 0.27 nM

SMILES: CCn1c(-c2cc(OCCN3CC[S+]([O-])CC3)cnc2[C@H](C)OC)c2c3cc(ccc31)-c1csc(n1)C[C@H](NC(=O)[C@H]1[C@H](C)[C@@H]1C)C(=O)N1CCC[C@H](N1)C(=O)OCC(C)(C)C2 (atropisomer, axis not shown; (Sa)) [Compound Z600-1]
IC50 [1, 3]: 82.7 nM | IC50 (NCI-H441 cells; 3D cell proliferation (CellTiter Glo-3D)): 0.0963 µM

Continued, values first:

IC50 [1, 4]: 1.01 nM | IC50 [2, 5]: 4.15 nM
SMILES: CCn1c(-c2cc(C#CCN3CCC(C#N)CC3)cnc2[C@H](C)OC)c2c3cc(ccc31)-c1csc(n1)C[C@H](Nc1nnc3cc(C)ccn13)C(=O)N1CCC[C@H](N1)C(=O)OCC(C)(C)C2 (atropisomer, axis not shown; (Ra)) [Compound Z959]

IC50 [1, 4]: 33.3 nM | IC50 (NCI-H441 cells; [6]): 0.0742 µM
SMILES: CCn1c(-c2cc(N3CCN(C)CC3)cnc2[C@H](C)OC)c2c3cc(ccc31)-c1csc(n1)C[C@H](Nc1nnc3n1CCCC3)C(=O)N1CCC[C@H](N1)C(=O)OCC(C)(C)C2 (atropisomer, axis not shown; (Ra)) [Compound Z423]

IC50 [1, 4]: 44.4 nM | IC50 (NCI-H441 cells; [6]): 0.101 µM
SMILES: CCn1c(-c2cc(N3CCN(C)CC3)cnc2[C@H](C)OC)c2c3cc(ccc31)-c1csc(n1)C[C@H](Nc1nnc3n1CC(C)CC3)C(=O)N1CCC[C@H](N1)C(=O)OCC(C)(C)C2 (atropisomer, axis not shown; (Ra)) [Compound Z431]
